Reference: BindingDB's records for doi:10.1016/j.bmc.2015.05.058 (Washington University, 2015)

These molecules were tested against T1, Vesicular acetylcholine transporter (Homo sapiens, UniProt Q16572) (assay: Displacement of [3H]-vesamicol from human VAChT after 24 hrs by liquid scintillation spectrometry analysis).
T1 sequence (Q16572 whole entry): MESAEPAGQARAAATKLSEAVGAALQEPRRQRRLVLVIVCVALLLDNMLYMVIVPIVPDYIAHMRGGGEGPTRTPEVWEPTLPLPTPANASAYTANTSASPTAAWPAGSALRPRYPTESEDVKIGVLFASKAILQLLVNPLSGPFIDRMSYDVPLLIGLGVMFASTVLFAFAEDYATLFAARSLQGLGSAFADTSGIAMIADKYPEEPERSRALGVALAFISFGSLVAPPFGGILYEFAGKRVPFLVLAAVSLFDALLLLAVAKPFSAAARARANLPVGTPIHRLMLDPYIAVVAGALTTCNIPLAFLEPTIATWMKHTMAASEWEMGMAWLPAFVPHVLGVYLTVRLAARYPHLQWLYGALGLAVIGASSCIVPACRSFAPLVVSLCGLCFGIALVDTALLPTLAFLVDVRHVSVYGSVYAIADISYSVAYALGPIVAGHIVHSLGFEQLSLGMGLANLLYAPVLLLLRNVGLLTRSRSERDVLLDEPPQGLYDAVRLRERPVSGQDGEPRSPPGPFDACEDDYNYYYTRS

Ki	Compound
1.6 nM	O=C(c1ccc(F)cc1)C1CCN([C@@H]2Cc3c(cccc3OCCF)C[C@H]2O)CC1
93 nM	O=C(c1ccc(F)cc1)C1CCN([C@@H]2Cc3cccc(OCCF)c3C[C@H]2O)CC1

Compound	Ki
O=C(c1ccc(F)cc1)C1CCN(C2Cc3c(cccc3OCCF)CC2O)CC1 (stereo not drawn)	13 nM
